Values quoted from earlier work as cited in paper PMC8954540, “A New Class of PSMA-617-Based Hybrid Molecules for Preoperative Imaging and Intraoperative Fluorescence Navigation of Prostate Cancer” (Pharmaceuticals, 2022).

Test system: human serum albumin
Design: method as in PMID 942422, PMID 11325049
Settings: cited from earlier work

## CC1(C)C(/C=C/C=C/C=C/C=C2\N(CCCCS(=O)(=O)O)c3ccc4ccccc4c3C2(C)C)=[N+](CCCCS(=O)(=O)[O-])c2ccc3ccccc3c21 [indocyanine green]
  human serum albumin binding: prone to human serum albumin binding
